Literature values in patent publication US20040142045A1, “THERAPEUTIC TREATMENT FOR BLOOD SUGAR REGULATION” (priority 2003, published 2004).
Read-outs that look alike come from different tables or passages of the source.

Assays:
[1] = animal models of insulin resistance and Type 2 diabetic patients
[2] = diabetic animals
[3] = system: glucokinase; details: supplementation
[4] = insulin dependent diabetes mellitus
[5] = experimental animals
[6] = Type 1 and Type 2 diabetics, supplementation
[7] = diabetics, dietary supplementation
[8] = another study, supplementation
[9] = mice with abnormally high glucose concentrations

## O=C(O)CCCCC1CCSS1 (stereo not drawn) [Alpha lipoic acid]
[1]
  insulin regulated glucose disposal: improve
[2]
  blood glucose levels: lower
  glucose uptake into the peripheral tissues: enhanced

## O=C(O)CCCC[C@@H]1SC[C@@H]2NC(=O)N[C@@H]21 [Biotin]
[3]
  activity of glucokinase: increase
[4]
  fasting blood glucose levels: significant reduction

## NC(=O)c1cccnc1 [Nicotinamide]
[5]
  development of diabetes: prevent

## [Zn] [Zinc]
[6]
  insulin levels: improve

## [Cr] [chromium]
[7]
  fasting blood glucose levels: decrease

## O=S(=O)([O-])[O-].[O]=[V+2] [vanadyl sulfate]
[8]
  fasting blood glucose and hepatic insulin resistance: modest reductions

## methylhydroxy chalcone polymer
[9]
  glucose concentrations: fell dramatically
